Data: patent US20240350536A1, “Application of Bi-Phenols in Anti-ototoxicity and Hearing Protection” (Northwestern University, priority 2017, published 2024)
Entries after “also recorded” stand apart in the source; their conditions may differ. Like-named read-outs stand apart in the source and are kept apart here.

Assays:
[1] = system: cervical cancer cells; test: Survival of cervical cancer cells with cisplatin and honokiol; type: cell-based
Experimental: (§1) FIG. 10. […] C: cisplatin; H: honokiol. […] Each treatment was repeated in triplets. The data were normalized by the number of untreated control (C0H0).
(§2) Because the role of SIRT3 may be different in different cancers, we selected three (3) different cancer cells for testing: prostate cancer cells, cervical cancer cells, and colon cancer cells. (See FIG. 10). Cisplatin was administered to the cancer cell lines with honokiol.

[2] = system: prostate cancer cells (C4-2B); test: Survival of prostate cancer cells with cisplatin and honokiol; type: cell-based
Experimental: as §1, §2

[3] = system: HEI-OC1 cells
Description: FIG. 9. […] The data were normalized to the number of cells in the negative control (C0H0).
(§3) (See FIG. 9). […] (See FIG. 9). […] (See FIG. 9).

[4] = system: mice; test: Auditory Brainstem Response (ABR) threshold shift in cisplatin-treated mice; type: in vivo
Description: Average=256. The error bars of all data points are standard deviations.

[5] = system: outer hair cells (OHC); test: Immunofluorescent histochemistry and confocal imaging of cochlear whole mount; type: in vivo, mice
Description: FIG. 13. Confocal images of the immunostaining (merged) of cochleae treated with Cis 15 (A) and Cis 15+HNK 20 (B) mg/kg, under 20× objectives.
FIG. 14. High-resolution confocal images (60× […]) of cochleae treated with Cis 15 (Left) and Cis 15+HNK 20 (Right), taken at the locations marked by white squares in FIGS. 13A and B, respectively. The white arrows indicate the nuclei of the remaining OHCs and the hollow arrows indicate missing OHCs. Note the panels for hair bundles (phalloidin staining) might be off focus and are only for indicating the correct position of the bodies and nuclei of the OHCs.
Immunofluorescent histochemistry (IFHC) of a cochlear whole mount was performed after the physiological studies described above using prestin antibody (for outer hair cells (OHC)), phalloidin (for hair bundle) and 4′,6-diamidino-2-phenylindole (DAPI) (for nuclei). […] (See FIG. 14A). HC loss can be indicated by the scarcity of remaining nuclei (white arrows).

[6] = system: outer hair cell (OHC) function; type: in vivo, mice
Experimental: FIG. 12A-12E. HNK protection against cisplatin-induced changes of DPOAE amplitude. […] The DPOAE shift, normalized to Day 0, of all the groups are plotted in (FIG. 12B to FIG. 12E). […] The results of the 2 animals in Cis 15 mg/kg group on Day 14 were both plotted in (FIG. 12B) as the dashed lines and open circles. […].
Distortion product oto-acoustic emissions (DPOAEs), which are an indication of outer hair cell (OHC) function, were measured in a separate series of experiments to estimate OHC protection by honokiol (HNK). (See FIG. 12A-12E). […] (See FIGS. 12D and 12E). After pre-treatment with HNK at a dosage of 10 mg/kg, the DPOAE shift was observed only at frequencies of 27 kHz and higher with a much smaller amplitude. (See FIG. 12D).

[7] = system: colon cancer cells; test: Survival of colon cancer cells with cisplatin and honokiol; type: cell-based
Experimental: as §1, §2

[8] = literature statement, cited from earlier work
[9] = Weight loss and animal survival in cisplatin-treated mice; type: in vivo
Description: (See FIG. 15). […] (See FIG. 15). […] (See FIG. 15A). […] (See FIG. 15B).

[10] = system: SIRT3, Caspase 3, PARP in HEI-OC1 cells; test: Western blot of SIRT3 and apoptosis-related proteins in HEI-OC1 cells; type: cell-based, mouse
Experimental: FIG. 9. […] (A) C: cisplatin; H: HNK. […] Cisplatin and honokiol were added simultaneously.
as §3

[11] = honokiol co-administered with cisplatin
[12] = cisplatin with honokiol pre-treatment

## C=CCc1ccc(O)c(-c2ccc(O)c(CC=C)c2)c1 [honokiol, 2-(4-hydroxy-3-prop-2-enyl-phenyl)-4-prop-2-enyl-phenol]
[1]; honokiol 25 μM, cisplatin 50 μM (C50H25)
  effect with cisplatin on cervical cancer cells: synergistic effect
[1]; [11]
  protection of cervical cancer cells from the toxicity of cisplatin: not observed to protect
[2]; HNK up to 25 μM, 50 μM cisplatin, preliminary data
  prostate cancer cell (C4-2B) death from cisplatin treatment: did not prevent
[2]; [11]
  protection of prostate cancer cells from the toxicity of cisplatin: not observed to protect
[3]
  cell toxicity: no cell toxicity
[3]; 10 μM HNK, 50 μM cisplatin, 24 hours, preliminary study
  HEI-OC1 apoptosis induced by cisplatin: completely prevent
[3]; HNK 10 μM, cisplatin 50 μM
  protection against high dose cisplatin ototoxicity: ~100%
[3]; honokiol 5 μM or 10 μM, cisplatin 50 μM or 100 μM
  protection of HEI-OC1 cells against cisplatin-induced cell loss: protect
[4]; HNK 10 mg/kg and cisplatin 15 mg/kg
  TS in tonal ABR at the highest frequency (32 kHz): significant TS
[4]; HNK 10-20 mg/kg, cisplatin 15-20 mg/kg
  TS at other frequencies and dose combinations: No further significant TS
[4]; mice pre-treated with HNK
  ABR TS induced by cisplatin: decreased significantly
[5]; Cis 15 + HNK 20 mg/kg, up to the 40 kHz region, only sporadic loss of HCs
  OHC structure: nearly intact OHC structure
[6]; mice pre-treated with HNK, cisplatin 15 mg/kg
  DPOAE amplitude changes: less pronounced
[7]; honokiol 10 μM or 25 μM, cisplatin 50 μM
  effect with cisplatin on colon cancer cells: synergistic effect
[7]; [11]
  protection of colon cancer cells from the toxicity of cisplatin: not observed to protect
[8]
  passage of the blood-brain barrier: capable of passing the blood-brain barrier
[8]; listed as HNK
  passage of the blood-brain barrier: can also cross the blood brain barrier; also recorded: permeable; also recorded: can pass through the blood-brain barrier
[9]; cisplatin 15 mg/kg with honokiol
  maximum weight loss: about 15%
[9]; cisplatin 20 mg/kg with honokiol
  animals lost: 20%
[9]; [12]
  survival rate / animal loss: significantly reduced; also recorded: improved significantly
  weight loss: significantly reduced; also recorded: largely improved
[10]; HEI-OC1, HNK with cisplatin, 24 hours after cisplatin treatment, listed as HNK
  SIRT3 expression level: increased; also recorded: elevated
[10]; HEI-OC1, cisplatin in the presence of HNK, pilot studies
  DNA damage: diminished
[10]; HEI-OC1, honokiol
  cleavage of poly ADP ribose polymerase (PARP): decrease
  expression of Caspase 3: decrease
[10]; HEI-OC1, increasing concentrations of honokiol
  expression of SIRT3: increase
[10]; HEI-OC1 co-treated with HNK and cisplatin versus cisplatin alone, pilot studies
  expression of early apoptosis mark caspase-3: higher in some cells

## N.N.[Cl][Pt][Cl] [cisplatin, reference compound]
[1]; cisplatin 50 μM or 100 μM
  reduction in cervical cancer cells: mild reduction
[2]; cisplatin 50 μM or 100 μM
  loss of prostate cancer cells: massive loss
[5]; Cis 15 mg/kg, basal 1/3 of the cochlea (estimated over 22 kHz)
  OHC organization and HC loss: Significant disruption of OHC organization and HC loss
[6]; mouse, in vivo
  DPOAE amplitude at high frequencies: reduced
  frequencies of apparent DPOAE amplitude drop: over 16 kHz
[7]; cisplatin 100 μM
  loss of colon cancer cells: massive loss
[9]; cisplatin 20 mg/kg, day 8
  survival rate: zero
